Measured values: PubChem BioAssay AID1199 (EPA DSSTox, 2008)
The source made the active and inactive calls.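 Rule for the calls: active = a tumour-causing dose and a tumour site recorded for mice in at least one sex group; inconclusive = only government mouse studies exist and were judged inadequate; inactive = mouse studies exist but none gave tumours.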

Tested on: mouse carcinogenicity bioassay, TD50 from CPDB
Assay: DSSTox (CPDBAS) Carcinogenic Potency Database Summary Mouse Bioassay Results
Settings: for outcome: TD50_Mouse_Note: no positive results
Outline: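 Values are TD50 carcinogenic potencies from mouse chronic bioassays, taking the most positive result for each sex-species. Sources are published literature and NCI/NTP studies; target sites reflect author-reported positive findings.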

[1] = TargetSites_Mouse_Female: no positive results
[2] = TD50_Mouse_Note: TD50 is harmonic mean of more than one positive test, greater than ten-fold variation among TD50 values for positive res, TargetSites_Mouse_Female: lung
[3] = TargetSites_Mouse_Female: liver

Structure (SMILES): Cc1cc(C)nc(NS(=O)(=O)c2ccc(N)cc2)n1
- Potency (TD50_Mouse_Note: TD50 is harmonic mean of more than one positive test, TargetSites_Mouse_Female: thyroid gland): 5.43 mmol/kg/day

Structure (SMILES): O=S(=O)(c1ccc(Cl)cc1)c1cc(Cl)c(Cl)cc1Cl
- outcome [1]: inactive; no positive results

Structure (SMILES): Cn1c(=O)c2c(ncn2C)n(C)c1=O
- outcome [1]: inactive; no positive results

Structure (SMILES): O=C1c2ccccc2C(=O)N1SC(Cl)(Cl)Cl
- Potency (TD50_Mouse_Note: TD50 is harmonic mean of more than one positive test, TargetSites_Mouse_Female: small intestine): 5.23 mmol/kg/day

Structure (SMILES): Nc1ccc(Cl)cc1
- outcome [1]: inactive; no positive results
- Potency [1]: 0.546 mmol/kg/day

Structure (SMILES): Clc1ccccc1Cl
- outcome [1]: inactive; no positive results

Structure (SMILES): Clc1ccc(C(c2ccccc2Cl)C(Cl)Cl)cc1 (stereo unspecified)
- outcome [1]: inactive; no positive results

Structure (SMILES): Cc1ccc(OP(=O)(Oc2ccc(C)cc2)Oc2ccc(C)cc2)cc1
- outcome [1]: inactive; no positive results

Structure (SMILES): C=C(C)C#N
- outcome [1]: inactive; no positive results

Structure (SMILES): S=c1[nH]c2ccccc2s1
- outcome [1]: inactive; no positive results

Structure (SMILES): CNC[C@H](O)c1cccc(O)c1
- outcome [1]: inactive; no positive results

Structure (SMILES): [O]=[Mo](=[O])=[O]
- Potency [2]: 0.0426 mmol/kg/day

Structure (SMILES): C=Cc1ccc(C)cc1
- outcome [1]: inactive; no positive results

Structure (SMILES): CC1=C(C(=O)OC(C)C)C(c2cccc([N+](=O)[O-])c2)C(C(=O)OC2CN(C(c3ccccc3)c3ccccc3)C2)=C(N)N1 (stereo unspecified)
- outcome [1]: inactive; no positive results

Structure (SMILES): COc1ccc([C@@H]2CC(=O)c3c(O)cc(O[C@@H]4O[C@H](CO[C@@H]5O[C@@H](C)[C@H](O)[C@@H](O)[C@H]5O)[C@@H](O)[C@H](O)[C@H]4O)cc3O2)cc1OC
- outcome [1]: inactive; no positive results

Structure (SMILES): CCCC[C@H](C)[C@@H](OC(=O)C[C@H](CC(=O)O)C(=O)O)[C@@H](C[C@H](C)C[C@@H](O)CCCC[C@@H](O)C[C@H](O)[C@H](C)N)OC(=O)C[C@H](CC(=O)O)C(=O)O
- Potency [3]: 0.00941 mmol/kg/day

Structure (SMILES): O=c1[nH]cc(F)c(=O)[nH]1
- Potency (TD50_Mouse_Note: TD50 is harmonic mean of more than one positive test, TargetSites_Mouse_Female: hematopoietic system, lung): 0.0228 mmol/kg/day

Structure (SMILES): CCCCC(C)(O)C/C=C/[C@H]1[C@H](O)CC(=O)[C@@H]1CCCCCCC(=O)OC (stereo partly specified)
- outcome [1]: inactive; no positive results

Structure (SMILES): Nc1cccc2c(N)cccc12
- Potency (TD50_Mouse_Note: TD50 is harmonic mean of more than one positive test, TargetSites_Mouse_Female: liver, lung, thyroid gland): 1.02 mmol/kg/day

Structure (SMILES): O=C1C(Cl)=C(Cl)C(=O)C(Cl)=C1Cl
- outcome [1]: inactive; no positive results

Structure (SMILES): CN1CCC[C@H]1c1cccnc1
- outcome [1]: inactive; no positive results

Structure (SMILES): CC(C)N(C(=O)SC/C(Cl)=C/Cl)C(C)C
- Potency (TD50_Mouse_Note: TD50 is harmonic mean of more than one positive test, TargetSites_Mouse_Female: no positive results): 0.0988 mmol/kg/day

Structure (SMILES): ClC1=C(Cl)[C@]2(Cl)[C@@H]3[C@@H]4C[C@@H]([C@H]5O[C@@H]45)[C@@H]3[C@@]1(Cl)C2(Cl)Cl
- Potency (TD50_Mouse_Note: TD50 is harmonic mean of more than one positive test, harmonic mean of TD50 includes a value for upper 99% confidence li, TargetSites_Mouse_Female: liver): 0.00239 mmol/kg/day

Structure (SMILES): O=NN1CCCC1
- Potency: 0.00678 mmol/kg/day

Structure (SMILES): O=c1ccc(=O)[nH][nH]1
- outcome [1]: inactive; no positive results

Structure (SMILES): CCNc1nc(Cl)nc(NCC)n1
- outcome [1]: inactive; no positive results

Structure (SMILES): CCBr
- Potency (TargetSites_Mouse_Female: uterus): 4.91 mmol/kg/day

Structure (SMILES): COc1c(Cl)c(Cl)c([N+](=O)[O-])c(Cl)c1Cl
- outcome [1]: inactive; no positive results

Structure (SMILES): CC(CCl)OC(C)CCl (stereo unspecified)
- Potency (TD50_Mouse_Note: TD50 is harmonic mean of more than one positive test, TargetSites_Mouse_Female: lung): 1.12 mmol/kg/day

Structure (SMILES): C[C@H]1CCCC(=O)CCC/C=C/c2cc(O)cc(O)c2C(=O)O1
- Potency (TD50_Mouse_Note: TD50 is harmonic mean of more than one positive test, TargetSites_Mouse_Female: liver, pituitary gland): 0.123 mmol/kg/day

Structure (SMILES): NC1CCCCC1
- outcome [1]: inactive; no positive results

Structure (SMILES): ClCOCCOCCl
- Potency (TD50_Mouse_Note: positive test results only by intraperitoneal or intravenous injection, TargetSites_Mouse_Female: peritoneal cavity): 0.0291 mmol/kg/day

Structure (SMILES): Nc1ccc(Oc2ccc(N)cc2)cc1
- Potency (TD50_Mouse_Note: TD50 is harmonic mean of more than one positive test, TargetSites_Mouse_Female: harderian gland, liver, thyroid gland): 0.168 mmol/kg/day

Structure (SMILES): CC1(C)COC1=O
- outcome [1]: inactive; no positive results

Structure (SMILES): CC(COc1ccc(C(C)(C)C)cc1)OS(=O)OCCCl (stereo unspecified)
- Potency [1]: 0.472 mmol/kg/day

Structure (SMILES): Cc1ccc2ccccc2c1
- outcome [1]: inactive; no positive results

Structure (SMILES): OCCBr
- Potency (TD50_Mouse_Note: TD50 is harmonic mean of more than one positive test, TargetSites_Mouse_Female: stomach): 0.609 mmol/kg/day

Structure (SMILES): Cc1cnc2ccc3c(nc(N)n3C)c2n1
- Potency (TD50_Mouse_Note: TD50 is harmonic mean of more than one positive test, TargetSites_Mouse_Female: liver, lung): 0.114 mmol/kg/day

Structure (SMILES): CC(C)(Oc1ccc(C2CC2(Cl)Cl)cc1)C(=O)O (stereo unspecified)
- Potency (TD50_Mouse_Note: TD50 is harmonic mean of more than one positive test): 0.0214 mmol/kg/day

Structure (SMILES): COc1ccc2nc(S(=O)Cc3ncc(C)c(OC)c3C)[nH]c2c1 (stereo unspecified)
- outcome [1]: inactive; no positive results

Structure (SMILES): COC(C)(C)C
- Potency [3]: 74.3 mmol/kg/day

Structure (SMILES): CCCCCCCCCCCCN=C(N)N
- outcome [1]: inactive; no positive results

Structure (SMILES): Nc1ccc(N=Nc2ccc(N)cc2)cc1
- outcome [1]: inactive; no positive results

Structure (SMILES): CCOC(N)=O
- Potency [2]: 0.19 mmol/kg/day

Structure (SMILES): CCc1ccccc1
- Potency (TD50_Mouse_Note: TD50 is harmonic mean of more than one positive test, TargetSites_Mouse_Female: liver): 15.1 mmol/kg/day
